The target in one assay is T1, H3 receptors (Cavia porcellus, UniProt Q9JI35).
T1 construct: The source of the H3 receptors in this experiment was guinea pig brain; from tissue; host or cells: guinea pig brain membranes
As to the kind of experiment: H3-Receptor Binding Assay (guinea pig brain membranes, [3H]R-α-methyl histamine or [3H]Nα-methyl histamine). The settings on record: HCl salt of the indicated compound, read-out: H3 Ave Ki. The protocol:
General Procedure for H3—Receptor Binding Assay
The source of the H3 receptors in this experiment was guinea pig brain. The animals weighed 400-600 g. The brain tissue was homogenized with a solution of 50 mM Tris, pH 7.5. The final concentration of tissue in the homogenization buffer was 10% w/v. The homogenates were centrifuged at 1,000×g for 10 min. in order to remove clumps of tissue and debris. The resulting supernatants were then centrifuged at 50,000×g for 20 min. in order to sediment the membranes, which were next washed three times in homogenization buffer (50,000×g for 20 min. each). The membranes were frozen and stored at −70° C. until needed.
All compounds to be tested were dissolved in DMSO and then diluted into the binding buffer (50 mM Tris, pH 7.5) such that the final concentration was 2 μg/ml with 0.1% DMSO. Membranes were then added (400 μg of protein) to the reaction tubes. The reaction was started by the addition of 3 nM [^3H]R-α-methyl histamine (8.8 Ci/mmol) or 3 nM [^3H]N^α-methyl histamine (80 Ci/mmol) and continued under incubation at 30° C. for 30 min. Bound ligand was separated from unbound ligand by filtration, and the amount of radioactive ligand bound to the membranes was quantitated by liquid scintillation spectrometry. All incubations were performed in duplicate and the standard error was always less than 10%. Compounds that inhibited more than 70% of the specific binding of radioactive ligand to the receptor were serially diluted to determine a Ki (nM). The results are given in the Table 1 for the HCl salt of the indicated compound.

The target in another assay is T2, histamine H1 receptor (Rattus norvegicus, UniProt P31390).
T2 construct: The tissue source was male Sprague-Dawley rat brain; tissue Rockland Corporation, Gilbertsville, Pa; host or cells: male Sprague-Dawley rat brain membranes
The experiment in a line: H1-Receptor Binding Assay (rat brain membranes, [3H]pyrilamine). The note with it: male Sprague-Dawley rat brain membranes, Ki by Cheng-Prusoff, HCl salt of the indicated compound, read-out: H1 Ave Ki. The text has this:
General Procedure for H1.—Receptor Binding Assay: The procedure used was based on that disclosed in V. T. Tran et al, “Histamine H1 receptors identified in mammalian brain membranes with [H-3]mepyramine”, Proc. Natl. Acad. Sci. U.S.A. 75 (1978) 6290-6294.
I. Tissue preparation protocol for histamine H1 receptor binding assay:
1. The tissue source was male Sprague-Dawley rat brain. These were purchased stripped and frozen (available from Rockland Corporation, Gilbertsville, Pa.). The buffer used was ice-cold 50 mM Tris-HCl, pH 7.5. (The pH was determined at 25° C.)
2. The brains were spread out on plastic wrap on the benchtop and allowed to thaw for 10-15 min. After this, everything was kept ice-cold.
3. Two brains were put in each 50 ml round bottom centrifuge tube and 25 ml of buffer was added. Then they were broken up with a Polytron (from Brinkmann Instruments, Westbury, N.Y.) equipped with a PT-10 tip at setting 6 for 30 sec.
4. The volume in the tube was brought up to 45 ml and mixed and the particulate material was centrifuged at 1000×g (3000 rpm, SS-34 rotor) for 10 min to remove nuclei and unbroken cells.
5. Pellets were discarded and the supernatants were centrifuged 10 min at 50,000×g (20,000 rpm, SS-34 rotor).
6. The high-speed pellets were resuspended in a volume of Tris buffer equal to the original (4 ml), the contents of all tubes were pooled, and a sample was taken for BCA protein assay . The material was aliquotted, 45 ml per round-bottom tube, and the resuspension was recentrifuged. The yield of protein was approximately 20 mg/brain, so there was about 40 mg of protein per tube.
7 . Pellets were frozen at −80° C.
II. H1 Histamine receptor binding assay:
1. FDCL and comparative compounds for assay were independently solubilized at 1 mg/ml DMSO by vortexing, or if necessary by sonication. The first dilution, 100-fold, was made in 50 mM Tris-HCl, pH 7.5, at room temperature. The three or four subsequent ten-fold serial dilutions were made in 1% DMSO/50 mM Tris-HCl, pH 7.5. Drug solutions and assay plates were kept at room temperature during the course of the assay set up.
2. Test compounds were assayed at four or five concentrations: 1, 0.1, 0.01, 0.001, and 0.0001 μg/ml. Twenty μl of drug solution was pipeted into each of three wells.
3. [^3H]Pyrilamine was diluted approximately 2000-fold with ice-cold […] Tris-HCl, pH 7.5 (to a working concentration of 20-25 nM), and put on ice.
4. A frozen tissue pellet was thawed in a 25° C. water bath, resuspended in 50 mM Tris-HCl, pH 7.5, at 1.7-2 mg/ml by brief break-up on the Polytron, and put on ice.
5. Twenty μl of diluted [^3H]pyrilamine was added to each well.
6. One hundred fifty μl of tissue suspension was added to each well.
7. The top of the plate was covered and it was placed in a 25° C. shaking water bath (about 60 oscillations/min) for 30 min..
8. Samples were filtered on a Tomtec Mach 2 harvester (available from Tomtec Corporation, Orange, Conn.) through a GF/B filter mat (from Wallac, Inc., Gaithersburg, Md.) presoaked in 0.3% polyethylenimine. Each sample was thrice washed with ice-cold 50 mM Tris-HCl, pH 7.5 dried 20 sec on the Tomtec, and dried 3-4 min in a microwave oven on a paper towel. The filter was impregnated with MELTILEX brand wax scintillant (from Wallac Corporation) and counted on a Betaplate scintillation counter (from Wallac Corporation).
9. Specific binding was determined as the difference between total and nonspecific binding. […]

Usually Ki stands for a measure of affinity in units of concentration, obtained from inhibition or displacement.

T2 sequence (P31390 whole entry): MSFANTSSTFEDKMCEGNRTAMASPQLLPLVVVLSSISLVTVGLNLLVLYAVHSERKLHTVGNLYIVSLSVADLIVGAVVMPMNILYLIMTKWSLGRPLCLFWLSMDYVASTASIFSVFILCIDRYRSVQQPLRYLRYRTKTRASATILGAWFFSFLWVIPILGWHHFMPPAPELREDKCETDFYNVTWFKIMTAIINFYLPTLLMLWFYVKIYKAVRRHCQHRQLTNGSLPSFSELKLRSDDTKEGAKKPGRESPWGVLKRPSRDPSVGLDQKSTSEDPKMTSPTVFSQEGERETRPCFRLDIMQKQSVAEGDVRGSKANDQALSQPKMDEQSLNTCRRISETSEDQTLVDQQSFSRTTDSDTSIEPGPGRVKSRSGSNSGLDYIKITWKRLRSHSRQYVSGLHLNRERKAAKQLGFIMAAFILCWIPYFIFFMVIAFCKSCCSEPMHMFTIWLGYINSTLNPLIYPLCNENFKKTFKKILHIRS
T1 sequence (Q9JI35 whole entry): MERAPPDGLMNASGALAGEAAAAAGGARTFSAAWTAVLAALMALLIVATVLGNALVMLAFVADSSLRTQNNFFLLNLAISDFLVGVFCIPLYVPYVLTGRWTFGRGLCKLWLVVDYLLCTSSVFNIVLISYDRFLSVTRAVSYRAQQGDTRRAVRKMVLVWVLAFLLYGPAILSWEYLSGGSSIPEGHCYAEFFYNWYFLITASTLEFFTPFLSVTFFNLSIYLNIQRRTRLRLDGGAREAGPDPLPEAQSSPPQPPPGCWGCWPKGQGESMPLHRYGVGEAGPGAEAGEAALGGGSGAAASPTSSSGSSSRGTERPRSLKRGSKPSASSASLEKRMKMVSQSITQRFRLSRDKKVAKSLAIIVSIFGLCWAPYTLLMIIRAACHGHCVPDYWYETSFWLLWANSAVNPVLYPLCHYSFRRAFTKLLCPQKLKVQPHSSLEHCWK

As for `Clc1ccc2c(c1)CCc1cccnc1C2CCN(CCCCc1c[nH]cn1)CCCCc1c[nH]cn1` (centres unmarked), the Ki at H3 receptors is 0.009 µM.

Turning to `Clc1ccc2c(c1)CCc1cccnc1C2NCCCCc1c[nH]cn1` (centres unmarked), the Ki on histamine H1 receptor turned out to be 0.041 µM; at H3 receptors, 0.029 µM.

Turning to `Clc1ccc2c(c1)CCc1cccnc1C2NCCc1c[nH]cn1` (centres unmarked), the values for the inhibition constant (Ki) at histamine H1 receptor and at H3 receptors were 0.144 µM and 0.07 µM, respectively.

For the compound `Clc1ccc2c(c1)CCc1cccnc1C2CCNCCCCc1c[nH]cn1` (centres unmarked), the Ki at H3 receptors worked out at 0.0075 µM.

Regarding `Clc1ccc2c(c1)CCc1cccnc1C2CCN(CCCCCc1c[nH]cn1)CCCCCc1cnc[nH]1` (centres unmarked), the inhibition constant (Ki) at H3 receptors came out at 0.026 µM.

Turning to `Clc1ccc2c(c1)CCc1cccnc1C2CCNCCCCCc1c[nH]cn1` (centres unmarked), the inhibition constant (Ki) on H3 receptors turned out to be 0.007 µM.

Consider `Clc1ccc2c(c1)CCc1cccnc1C2CCNCCCc1c[nH]cn1` (centres unmarked), for which the inhibition constant Ki on histamine H1 receptor is 0.04 µM; at H3 receptors, 0.037 µM.

Turning to `Clc1ccc2c(c1)CCc1cccnc1C2NCCCCCc1c[nH]cn1` (centres unmarked), the Ki at histamine H1 receptor was determined as 0.502 µM; at H3 receptors, 0.0075 µM.

For the compound `Clc1ccc2c(c1)CCc1cccnc1C2CCN(CCCc1c[nH]cn1)CCCc1c[nH]cn1` (centres unmarked), the Ki on histamine H1 receptor worked out at 0.571 µM; at H3 receptors, 0.025 µM.

Values taken from patent US6528522B2, “Substituted imidazoles as dual histamine H1 and H3 agonists or antagonists” (Schering Corporation, priority 2000, dated 2003).
